The results in this text go back to publication PMC5423244, “Synthesis and Biological Evaluation of N-(5-(pyridin-2-yl)-1,3,4-thiadiazol-2-yl)benzamide Derivatives as Lipoxygenase Inhibitor with Potential Anticancer Activity” (Iranian Journal of Pharmaceutical Research : IJPR, 2017).

The target of this assay is T1, SLO; 15-lipoxygenase-1 (15-LOX-1) (Glycine max, UniProt P08170).
T1 construct: gene LOX1.1; SLO (abbreviation not spelt out); the introduction and aim speak of human 15-LO-1
T1 sequence (P08170 1-839): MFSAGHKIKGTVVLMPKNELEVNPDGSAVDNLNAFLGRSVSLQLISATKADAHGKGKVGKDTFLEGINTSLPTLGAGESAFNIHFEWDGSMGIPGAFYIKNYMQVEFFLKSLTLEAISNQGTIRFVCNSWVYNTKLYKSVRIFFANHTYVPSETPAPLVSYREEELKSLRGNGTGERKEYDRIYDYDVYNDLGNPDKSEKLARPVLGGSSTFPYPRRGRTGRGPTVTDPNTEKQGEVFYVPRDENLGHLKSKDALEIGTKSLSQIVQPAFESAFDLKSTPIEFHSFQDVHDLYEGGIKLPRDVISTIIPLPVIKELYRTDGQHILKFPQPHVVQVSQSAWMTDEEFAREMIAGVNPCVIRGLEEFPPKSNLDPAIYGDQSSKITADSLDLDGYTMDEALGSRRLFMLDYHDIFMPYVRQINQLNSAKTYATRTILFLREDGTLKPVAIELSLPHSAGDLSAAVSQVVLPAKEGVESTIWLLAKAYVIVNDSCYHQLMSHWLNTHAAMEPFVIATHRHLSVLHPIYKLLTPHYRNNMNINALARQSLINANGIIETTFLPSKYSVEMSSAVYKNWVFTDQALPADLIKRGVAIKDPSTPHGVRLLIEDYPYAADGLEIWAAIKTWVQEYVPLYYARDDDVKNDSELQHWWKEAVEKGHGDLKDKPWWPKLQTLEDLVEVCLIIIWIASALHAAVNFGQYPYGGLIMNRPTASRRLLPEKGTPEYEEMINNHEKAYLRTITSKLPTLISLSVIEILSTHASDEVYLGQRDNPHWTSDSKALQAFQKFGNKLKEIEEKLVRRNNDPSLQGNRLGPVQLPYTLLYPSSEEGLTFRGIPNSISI
In words: linoleic acid hydroperoxide by MBTH/DMAB/hemoglobin colour reaction, […] nm. Format: biochemical.
The term inhibition denotes the share of the control response that was lost under treatment. `O=C(Nc1nnc(-c2ccccn2)s1)c1ccc(F)cc1` [4f, 4-Fluoro-N-(5-(pyridin-2-yl)-1,3,4-thiadiazol-2-yl)benzamide] came in with an inhibition at 200 µM of 25%.
`O=C(Nc1nnc(-c2ccccn2)s1)c1ccc(Cl)cc1` [4c, 4-Chloro-N-(5-(pyridin-2-yl)-1,3,4-thiadiazol-2-yl)benzamide] returned an inhibition at 200 µM of 12%.
Molecule `COc1cccc(C(=O)Nc2nnc(-c3ccccn3)s2)c1` [4k, 3-Methoxy-N-(5-(pyridin-2-yl)-1,3,4-thiadiazol-2-yl)benzamide] had an inhibition at 200 µM of 26%.
Take `O=C(Nc1nnc(-c2ccccn2)s1)c1cccc(F)c1` [4e, 3-Fluoro-N-(5-(pyridin-2-yl)-1,3,4-thiadiazol-2-yl)benzamide]: at 200 µM the inhibition was 13%.
In the case of `O=C(Nc1nnc(-c2ccccn2)s1)c1cccc(Cl)c1` [4b, 3-Chloro-N-(5-(pyridin-2-yl)-1,3,4-thiadiazol-2-yl)benzamide] it was 8%; in that of `O=C(Nc1nnc(-c2ccccn2)s1)c1ccccc1Cl` [4a, 2-Chloro-N-(5-(pyridin-2-yl)-1,3,4-thiadiazol-2-yl)benzamide], 8%.
As for `COc1ccc(C(=O)Nc2nnc(-c3ccccn3)s2)cc1` [4l, 4-Methoxy-N-(5-(pyridin-2-yl)-1,3,4-thiadiazol-2-yl)benzamide], the inhibition at 200 µM was 14%.
For `O=C(Nc1nnc(-c2ccccn2)s1)c1ccccc1F` [4d, 2-Fluoro-N-(5-(pyridin-2-yl)-1,3,4-thiadiazol-2-yl)benzamide], the inhibition at 200 µM is 17%.
In turn, `COc1ccccc1C(=O)Nc1nnc(-c2ccccn2)s1` [4j, 2-Methoxy-N-(5-(pyridin-2-yl)-1,3,4-thiadiazol-2-yl)benzamide] had an inhibition at 200 µM of 28%.
